ChEMBL document CHEMBL4419167, “Compositions and methods for treating respiratory injury or disease” (2018)
Active and inactive are the calls of the source. No cut-off for these calls is given here.

Tested on: Mus musculus
Assay: Suppression of lung injury in mouse model of influenza A virus H1N1 infection-induced lung injury assessed as decrease in lung resistance at 30 ug/ml dosed via drinking water
Format: functional, organism-based

c1ccc(-c2ccc(CNCCNCc3ccc(-c4ccccn4)cc3)cc2)nc1
Activity: Active
